One experiment addresses T1, human MC3R (Homo sapiens, UniProt P41968).
T1 construct: expressed in transfected cells; host or cells: HEK-293 cells stably expressing the GScAMP22F split-luciferase cAMP sensor (parent reporter line from Promega); MC3R clone generated in-house, G418 selection
The experiment in a line: split-luciferase cAMP sensor assay, agonist mode (measurement window 1), hMC3R. Type of experiment: cell-based. As to conditions: agonist mode, hMC3R stable cell line; for Emax: read-out: MC3R cAMP % max activation; for EC50: read-out: MC3R cAMP EC50. The method, then: (§1) The stable cell lines were grown and maintained in selection media consisting of Dulbecco's modified Eagle media (DMEM) with 4.5 g/l D-glucose, and 4 mM L-glutamine (Thermo Fisher Scientific, Waltham, MA), supplemented with 10% fetal bovine serum, 100 units/ml penicillin, 100 μg/ml streptomycin, 2.5 μg/ml amphotericin B, 200 μg/ml hygromycin B (for positive selection of the GScAMP22f luciferase reporter), and Geneticin™ (G418) 700 μg/ml (for MC3R or MC4R selection). Actual serum concentration during the assay is estimated to be about 1%. Cell line identity is routinely verified by qPCR and MC3R-and MC4R-specific oligonucleotides.
(§2) The assay for the determination of the cAMP response in live cells was described previously. […] Cells were seeded at a density of 20,000 cells per well using 384-well poly-D lysine-coated, clear bottom, and black-wall assay plates (Corning Inc. Corning, NJ). Cells were allowed to attach to the plates for 18 to 24 h after which growth media was removed and 20 μl of 4% D-luciferin (Promega) in CO2 independent, serum-free medium (Thermo Fisher Scientific) was added to each well. […] Intracellular cAMP levels were measured using an FDSS 7000EX Functional Drug Screening System (Hamamatsu Photonics, Hamamatsu, Japan) in the Center for Chemical Genomics at the Life Sciences Institute. This instrument allowed the in-line addition of test-peptides and receptor agonists while simultaneously acquiring the luminescence signal from live cells. […] A submaximal forskolin (20 μM) concentration was also included to serve as a normalization reference to account for cell number variations and differences in assay transducer efficiency between cell lines.
(§3) With this set up it was possible to evaluate the direct effect of the test-peptides on the MC3R and MC4R cell lines during measurement window 1, while the antagonist profile in the presence of EC90 α-MSH was determined on measurement window 2. […] EC50 or IC50 potency values were determined by non-linear regression by fitting the data to a sigmoid four-parameter variable slope model using the GraphPad Prism version 8.4 software package (San Diego CA).

Another experiment deals with T2, human MC4R (Homo sapiens, UniProt P32245).
T2 construct: host or cells: HEK-293 cells stably expressing the GScAMP22F split-luciferase cAMP sensor and hMC4R, G418 selection
T2 sequence (P32245 whole entry): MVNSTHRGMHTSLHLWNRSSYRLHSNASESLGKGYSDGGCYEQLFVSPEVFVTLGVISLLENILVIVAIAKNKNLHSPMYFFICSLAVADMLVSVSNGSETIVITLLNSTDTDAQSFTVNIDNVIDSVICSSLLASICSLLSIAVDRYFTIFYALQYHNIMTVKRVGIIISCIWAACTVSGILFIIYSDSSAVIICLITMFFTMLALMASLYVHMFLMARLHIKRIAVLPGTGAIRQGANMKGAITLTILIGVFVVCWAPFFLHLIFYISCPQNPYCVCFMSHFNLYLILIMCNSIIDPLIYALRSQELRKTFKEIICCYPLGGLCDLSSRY
Briefly: split-luciferase cAMP sensor assay, agonist mode (measurement window 1), hMC4R. Type of experiment: cell-based. The following applies: for Emax / EC50 / MC4R cAMP % max activation: agonist mode, hMC4R stable cell line; for Emax: read-out: MC4R cAMP % max activation; for EC50: read-out: MC4R cAMP EC50. The method, then: as §1, §2, §3

By EC50 is commonly meant the concentration giving half of the maximal effect.

Structures are written as SMILES. Read-outs that look alike come from different tables or passages of the source. Positions of bridges follow the written chain, without caps; N, C: chain ends. Non-standard residues stand in square brackets, D forms with d. Residues, ends and D or L forms follow the SMILES beside them. dPhe(4-Br) = N[C@H](Cc1ccc(Br)cc1)C(=O)O; d2Nal = N[C@H](Cc1ccc2ccccc2c1)C(=O)O; d(hPhe) = N[C@H](CCc1ccccc1)C(=O)O; NMeR = CN[C@@H](CCCNC(=N)N)C(=O)O; Tic = O=C(O)[C@@H]1Cc2ccccc2CN1; Cit = NC(=O)NCCC[C@H](N)C(=O)O; Nle = CCCC[C@H](N)C(=O)O; Aib = CC(C)(N)C(=O)O

T1 sequence (P41968 whole entry): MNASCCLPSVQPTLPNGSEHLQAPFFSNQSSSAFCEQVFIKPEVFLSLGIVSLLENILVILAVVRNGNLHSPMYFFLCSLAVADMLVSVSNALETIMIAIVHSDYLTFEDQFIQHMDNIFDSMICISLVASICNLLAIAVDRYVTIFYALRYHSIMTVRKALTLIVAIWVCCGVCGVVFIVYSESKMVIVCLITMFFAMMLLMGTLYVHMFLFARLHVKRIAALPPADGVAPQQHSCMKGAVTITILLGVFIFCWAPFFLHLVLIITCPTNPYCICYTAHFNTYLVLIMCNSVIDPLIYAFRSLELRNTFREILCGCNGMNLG

For `CC(=O)N[C@@H](CCCNC(=N)N)C(=O)N[C@H]1CSSC[C@@H](C(N)=O)NC(=O)[C@@H]2Cc3ccccc3CN2C(=O)[C@H](CCCNC(=N)N)NC(=O)[C@@H](Cc2ccc(Br)cc2)NC(=O)[C@H](CCCNC(=N)N)NC(=O)[C@@H](C)NC1=O` [CTX-1259, Arg-cyclo(Cys-D-Ala-Arg-D-Phe(4-Br)-Arg-Tic-Cys)] (Ac-RC[dA]R[dPhe(4-Br)]R[Tic]C-NH2; disulfide 2-8 (inferred)), at human MC3R, the Emax is 27%. Further, on human MC4R, the “MC4R selectivity vs MC1R” value was determined as 0.01, the “MC4R selectivity vs MC3R” value was found to be 0.12 and the Emax came to 70%.
For the molecule `CCCC[C@H](NC(=O)[C@H](CCCNC(=N)N)NC(C)=O)C(=O)N[C@H]1CSSC[C@@H](C(N)=O)NC(=O)[C@H](Cc2c[nH]c3ccccc23)NC(=O)[C@H](CCCNC(=N)N)NC(=O)[C@@H](Cc2ccc(OC)cc2)NC(=O)[C@H](CCCNC(=N)N)NC1=O` [CTX-1614, Arg-Nle-cyclo(Cys-Arg-D-Tyr(4-OMe)-Arg-Trp-Cys)] (Ac-R[Nle]CR[dY](Me)RWC-NH2; disulfide 3-8 (inferred)), at human MC3R, the Emax came out at 28%. On human MC4R, the “MC4R selectivity vs MC1R” value was 0.08, the “MC4R selectivity vs MC3R” value came to 1.89, the Emax was found to be 41% and the EC50 came to 1.7 nM.
For the molecule `CCCC[C@H](NC(=O)[C@H](CCCNC(=N)N)NC(C)=O)C(=O)N[C@H]1CSSC[C@@H](C(N)=O)NC(=O)[C@@H](Cc2c[nH]c3ccccc23)NC(=O)[C@H](CCCNC(=N)N)NC(=O)[C@@H](Cc2ccc(Br)cc2)NC(=O)[C@H](CCCNC(=N)N)NC1=O` [CTX-1232, Arg-Nle-cyclo(Cys-Arg-D-Phe(4-Br)-Arg-D-Trp-Cys)] (Ac-R[Nle]CR[dPhe(4-Br)]R[dW]C-NH2; disulfide 3-8 (inferred)), at human MC3R, the “MC3R cAMP % max activation” value was “(41%)”. Moreover, at human MC4R, the “MC4R selectivity vs MC1R” value is on record as 0.39, the “MC4R selectivity vs MC3R” value came to 2.44, the “MC4R cAMP % max activation” value is “(46%)” and the EC50 was 2.4 nM.
In the case of `CC(=O)N[C@@H](CCCNC(=N)N)C(=O)N[C@H]1CSSC[C@@H](C(N)=O)NC(=O)[C@@H](Cc2ccccc2)NC(=O)[C@H](CCCNC(=N)N)NC(=O)[C@@H](Cc2ccc(Br)cc2)NC(=O)[C@H](CCCNC(=N)N)NC(=O)[C@@H](C)NC1=O` [CTX-1255, Arg-cyclo(Cys-D-Ala-Arg-D-Phe(4-Br)-Arg-D-Phe-Cys)] (Ac-RC[dA]R[dPhe(4-Br)]R[dF]C-NH2; disulfide 2-8 (inferred)), on human MC3R, the Emax was determined as 28%. In addition, at human MC4R, the “MC4R selectivity vs MC1R” value was determined as 0.05, the “MC4R selectivity vs MC3R” value was determined as 0.24 and the Emax was found to be 60%.
`CC(=O)N[C@@H](CCCNC(=N)N)C(=O)N[C@H]1CSSC[C@@H](C(N)=O)NC(=O)[C@@H](Cc2c[nH]c3ccccc23)NC(=O)[C@H](CCCNC(N)=O)NC(=O)[C@@H](Cc2ccccc2)NC(=O)[C@H](CCCNC(=N)N)NC(=O)C(C)(C)NC1=O` [CTX-1271, Arg-cyclo(Cys-Aib-Arg-D-Phe-Cit-D-Trp-Cys)] (Ac-RC[Aib]R[dF][Cit][dW]C-NH2; disulfide 2-8 (inferred)): the Emax at human MC3R is 16%. For the same molecule, on human MC4R, the “MC4R selectivity vs MC1R” value is recorded as 2.9, the “MC4R selectivity vs MC3R” value is given as 1.63, the Emax is 95% and the EC50 worked out at 72 nM.
On to `CC(=O)N[C@@H](CCCNC(=N)N)C(=O)N[C@H]1CSSC[C@@H](C(N)=O)NC(=O)[C@@H](Cc2c[nH]c3ccccc23)NC(=O)[C@H](CCCNC(=N)N)NC(=O)[C@@H](Cc2c[nH]c3ccccc23)NC(=O)[C@H](CCCNC(=N)N)NC(=O)[C@@H](C)NC1=O` [CTX-1244, Arg-cyclo(Cys-D-Ala-Arg-D-Trp-Arg-D-Trp-Cys)] (Ac-RC[dA]R[dW]R[dW]C-NH2; disulfide 2-8 (inferred)), for which, at human MC3R, the “MC3R cAMP % max activation” value is “(10%)” and the EC50 came to 13 nM. Also, on human MC4R, the “MC4R selectivity vs MC1R” value was found to be 0.26, the “MC4R selectivity vs MC3R” value is 0.11, the “MC4R cAMP % max activation” value was “(42%)” and the EC50 worked out at 109 nM.
`CC(=O)N[C@@H](CCCNC(=N)N)C(=O)N[C@H]1CSSC[C@@H](C(N)=O)NC(=O)[C@H](Cc2c[nH]c3ccccc23)NC(=O)[C@H](CCCNC(=N)N)NC(=O)[C@@H](Cc2ccc(Br)cc2)NC(=O)[C@H](Cc2c[nH]cn2)NC(=O)[C@@H](C)NC1=O` [CTX-2206, Arg-cyclo(Cys-D-Ala-His-D-Phe(4-Br)-Arg-Trp-Cys)]: at human MC3R, the Emax amounted to 28% and the EC50 was determined as 22 nM. On human MC4R, the “MC4R selectivity vs MC3R” value came out at 7.35 and the Emax turned out to be 98%. Also, the EC50 at human MC4R (unit inferred) worked out at 3 nM.
With `CC(=O)N[C@@H](CCCNC(=N)N)C(=O)N[C@H]1CSSC[C@@H](C(N)=O)NC(=O)[C@@H](Cc2c[nH]c3ccccc23)NC(=O)[C@H](CCCNC(=N)N)NC(=O)[C@@H](CCc2ccccc2)NC(=O)[C@H](CCCNC(=N)N)NC(=O)[C@@H](C)NC1=O` [CTX-1239, Arg-cyclo(Cys-D-Ala-Arg-D-Hph-Arg-D-Trp-Cys)] (Ac-RC[dA]R[d(hPhe)]R[dW]C-NH2; disulfide 2-8), the “MC3R cAMP % max activation” value on human MC3R is “(7.9%)”. On human MC4R, the “MC4R selectivity vs MC1R” value is 0.1, the “MC4R selectivity vs MC3R” value was 0.3 and the “MC4R cAMP % max activation” value was “(28%)”.
As for `CC(=O)N[C@@H](CCCNC(=N)N)C(=O)N[C@H]1CSSC[C@@H](C(N)=O)NC(=O)[C@H](Cc2c[nH]c3ccccc23)NC(=O)[C@H](CCCNC(=N)N)NC(=O)[C@@H](Cc2ccc3ccccc3c2)NC(=O)[C@@H]2CCCN2C(=O)[C@@H](C)NC1=O` [CTX-2203] (Ac-RC[dA]P[d2Nal]RWC-NH2; disulfide 2-8 (inferred)), at human MC3R, the Emax is 1% and the EC50 was 29 nM. Besides, on human MC4R, the “MC4R selectivity vs MC3R” value worked out at 2.45, the Emax stood at 1.4% and the EC50 came to 12 nM.
In the case of `CC(=O)N[C@@H](CCCNC(=N)N)C(=O)N[C@H]1CSSC[C@@H](C(N)=O)NC(=O)[C@@H](Cc2c[nH]c3ccccc23)NC(=O)[C@H](CCCNC(N)=O)NC(=O)[C@@H](Cc2ccc(Br)cc2)NC(=O)[C@H](CCCNC(=N)N)NC(=O)[C@@H](C)NC1=O` [CTX-1253, Arg-cyclo(Cys-D-Ala-Arg-D-Phe(4-Br)-Cit-D-Trp-Cys)] (Ac-RC[dA]R[dPhe(4-Br)][Cit][dW]C-NH2; disulfide 2-8 (inferred)), at human MC3R, the Emax stood at 9.2% and the EC50 was 4 nM. Further, at human MC4R, the “MC4R selectivity vs MC1R” value is recorded as 0.57, the “MC4R selectivity vs MC3R” value was found to be 0.53 and the Emax amounted to 58%.
Take `CC(=O)N[C@@H](CCCNC(=N)N)C(=O)N[C@H]1CSSC[C@@H](C(=O)N[C@@H](CCCNC(=N)N)C(=O)N[C@@H](Cc2ccccc2)C(=O)NCC(=O)O)NC(=O)[C@@H](Cc2c[nH]c3ccccc23)NC(=O)[C@H](CCCNC(=N)N)NC(=O)[C@@H](Cc2ccc(Br)cc2)NC(=O)[C@H](CCCNC(=N)N)NC(=O)[C@@H](C)NC1=O` [CTX-1219] (Ac-RC[dA]R[dPhe(4-Br)]R[dW]CRFG-OH; disulfide 2-8 (inferred)): on human MC3R, the Emax amounted to 20% and the EC50 came out at 4.5 nM. Further, on human MC4R, the “MC4R selectivity vs MC1R” value stood at 1, the “MC4R selectivity vs MC3R” value was 1.99, the Emax stood at 76% and the EC50 worked out at 2.3 nM.
Regarding `CC(=O)N[C@@H](CCCNC(=N)N)C(=O)N[C@H]1CSSC[C@@H](C(N)=O)NC(=O)[C@@H](Cc2c[nH]c3ccccc23)NC(=O)[C@H](CCCNC(=N)N)N(C)C(=O)[C@@H](Cc2ccc(Br)cc2)NC(=O)[C@H](CCCNC(=N)N)NC(=O)[C@@H](C)NC1=O` [CTX-1251, Arg-cyclo(Cys-D-Ala-Arg-D-Phe(4-Br)-NMe-Arg-D-Trp-Cys)] (Ac-RC[dA]R[dPhe(4-Br)][NMeR][dW]C-NH2; disulfide 2-8), at human MC3R, the Emax was 30%. Also, at human MC4R, the “MC4R selectivity vs MC1R” value turned out to be 0.11, the “MC4R selectivity vs MC3R” value is 3.73 and the Emax turned out to be 31%.

Values taken from US20240391954A1, “MC4R AGONIST PEPTIDES” (The Regents of the University of Michigan, priority 2021, published 2024).
